In publication PMC10219169, “Thiopurines Analogues with Additional Ring: Synthesis, Spectroscopic Properties, and Anticancer Potency” (International Journal of Molecular Sciences, 2023):
Read-outs that look alike come from different tables or passages of the source.

How the values were obtained:
[1] = n-octanol/phosphate buffer pH 7.4 partition coefficient (lipophilicity determination); format: physicochemical; settings: 1-octanol/phosphate buffer pH 7.4, read-out: Experimental log Po/w (pH 7.4)
Procedure: The key parameter in drug design and one of the most important properties for all the pharmacokinetic rules is the octanol/water partition coefficient, log Po/w. It is defined as the partition coefficient ratio of a compound between the hydrophobic and hydrophilic phases and corresponds to lipophilicity, which describes drug interactions with membranes and the possibility of their transport across the membrane into the cell. The values of log Po/w were determined experimentally for all the tested compounds and compared with the values theoretically estimated on the SwissADME [23] webserver.
The partition coefficients of the tested compounds were determined for n-octanol/phosphate buffer pH 7.4 at 25 °C and 37 °C. The initial concentrations of the compounds (1.0 × 10^−5 M and 2.0 × 10^−5 M) were measured spectrophotometrically, according to the Beer–Lambert law. The absorbances were recorded at λmax of the appropriate compound against a suitable phosphate buffer blank. A quantity of 1 mL of the solution of the tested compound in the phosphate buffer at pH 7.4 and 1 mL of n-octanol were placed in 2 mL Eppendorf tubes. The samples were shaken manually (2 min), vortexed (5 min), and incubated for 5 h at 25 °C or 37 °C. Then, the tubes were centrifuged (2 min, 10,000 rpm). Both layers were carefully separated, and the absorbances were measured for the aqueous layers at a suitable λmax against the blank of the phosphate buffer at a suitable pH. The given logPo/w values are the mean of three independent experiments (one experiment: 3 samples for 2 concentrations of each compound).

HeLa cells = assay: CellTiter-Glo cell viability assay (24 h), HeLa; format: cell-based, human; settings: for IC50: CellTiter-Glo; for reduction of HeLa cell viability: c = 80 μM; for selectivity index (SI): SI = IC50 normal cell (NIH/3T3) / IC50 cancerous cell (HeLa)
Procedure: (§1) The compounds in this work were tested for their in vitro inhibitory effect on the viability of the HeLa (cancerous) cell line using the CellTiter-Glo® 2.0 cell viability assay (24 h). In addition, the mouse fibroblast NIH/3T3 cell line was used to assess the effects of the compounds on healthy normal cells. […] The 6TG was used as a standard in all tests conducted. The graph of percentage cell viability (y axis) against concentrations of the tested compounds (x axis) and concentration-viability curves with IC50 values from dose-response studies are presented in Figure 4 and Figure 5, respectively.
(§2) The cytotoxicity of the synthesized compounds was tested using cell lines of cervical cancer (HeLa) and mouse fibroblasts (NIH/3T3). Both cell lines were cultured in Dulbecco′s Modified Eagle′s medium (31053, Sigma-Aldrich-Gibco, Thermo Fisher Scientific, Waltham, MA, USA) supplemented with 10% fetal bovine serum (Biowest, Nuaillé, France), 1% Glutamax (Thermo Fisher Scientific, Waltham, MA, USA), and 1% Antibiotic-Antimycotic (Biowest) under standard culture conditions (95% humidity, 5% CO2, at 37 °C). For the purpose of cytotoxicity assays, cells (from both cell lines) were seeded at a density of ca. 5000 cells/well on a 96-well microplate (white, flat bottom), in 4 replicates. 6-Me-TEGuo, 6-Me-TEGua, TEGuo, TEGua, and 6-Me-TEG were tested for their potential cytotoxicity using the following concentrations: 160 (except 6-Me-TEG), 80, 40, 20, 10, 5, and 2.5 μM. Additionally, 6-thioguanine (6TG) in concentrations of 10, 7.5, 5, 2.5, 1.25, and 0.625 μM was tested. All assays included non-treated cells and cells treated with 10% DMSO as negative and positive controls, respectively. The cells were incubated for 24 h under standard culture conditions. Cytotoxicity was measured as cell viability with the CellTiter-Glo® Luminescent Cell Viability Assay (Promega, Madison, WI, USA) according to the manufacturer’s protocol. The microplate luminescence was measured using an Infinite® 200 PRO plate reader (Tecan, Männedorf, Switzerland). Then, the average luminescence of non-labeled cells was equated to 100%, and the remaining values were proportionally normalized. The IC50 values were calculated from the fitting curves using Origin 2022.

[2] = pKa determination by spectrophotometric method; format: physicochemical; settings: for fraction existing in ionic form: at physiological pH (7.32–7.42); for pKa: spectrophotometric method, buffer solutions of different pH
Procedure: The synthesized compounds, due to their structure, can be hydrogen donors as well as acceptors. Depending on the pH, they can exist in protonated or deprotonated forms. In order to establish which form of the new tricyclic thiopurine derivatives is favored at neutral pH (the conditions under which the in vitro tests will be carried out), their pKa values were determined by spectrophotometric methods (see Table 1 and the Experimental Section). […] This means that at physiological pH (7.32–7.42), about 6% of TEGuo/TEGua exist in ionic form, while 6-Me-TEGuo/6-Me-TEGua only about 4%.
UV-vis absorption spectra were recorded using a Cary 100 spectrophotometer scanning from 800 to 200 nm with 1 nm increments in 1 cm × 1 cm quartz cells. Emission spectra were taken in 1 cm × 1 cm quartz cells on a JASCO FP–8300 spectrofluorometer (excitation and emission slits 5 nm, scan speed 500 nm min^−1) for solutions with absorbance at the excitation wavelength less than 0.1. The fluorescence quantum yields were determined using 10-methylacridinium cation in water (Φ = 1.0) as a standard. The dissociation constants were determined by the spectrophotometric method: in a first step, buffer solutions of different pH were prepared. The pH of solutions was determined by a Mettler Toledo F20 FiveEasy pH meter equipped with a pH electrode LE438 3 in 1 (Mettler Toledo). In the second step, equal volumes of a substance dissolved in water (10 μL) were added to the buffer solution (3 mL). The spectra were recorded with 1 nm resolution over the range from 220 to 550 nm to obtain different spectra around the maximum λ for each compound studied. The purity of all samples was monitored by an HPLC method. HPLC measurements were performed using an Agilent 1200 Rapid Resolution UHPLC system equipped with a reversed-phase column (Eclipse Plus C18, […], 4.6 × 250 mm). A gradient of acetonitrile in water was used as an eluent. The water was doubly distilled and purified using a Milli-Q system (Millipore, Bedford, MA, USA). The fluorescence lifetime measurements were recorded using a Fluorescence Lifetime Spectrometer (FluoTime 300 from PicoQuant) with a time-correlated single-photon counting detection system equipped with a 378 nm laser as its excitation source. All experiments were carried out in a standard quartz cell (1 cm × 1 cm).

NIH/3T3 cells = assay: CellTiter-Glo cell viability assay (24 h), NIH/3T3; format: cell-based; settings: Mus musculus, NIH3T3, NIH/3T3, 24 h
Procedure: as §1, §2

[3] = pKa* of singlet excited state from pH-dependent fluorescence emission; format: physicochemical; settings: determined from emission from the singlet excited state
Procedure: At pH 4.0, as was the case for the absorbance at 352 nm, the intensity and shape of the fluorescence signal were similar to those observed in water solution for all the compounds tested. However, in the case of basic pH, a two-fold increase in the emission intensity and a blueshift of the emission maximum were observed.
UV-vis absorption spectra were recorded using a Cary 100 spectrophotometer scanning from 800 to 200 nm with 1 nm increments in 1 cm × 1 cm quartz cells. Emission spectra were taken in 1 cm × 1 cm quartz cells on a JASCO FP–8300 spectrofluorometer (excitation and emission slits 5 nm, scan speed 500 nm min^−1) for solutions with absorbance at the excitation wavelength less than 0.1. The fluorescence quantum yields were determined using 10-methylacridinium cation in water (Φ = 1.0) as a standard. The dissociation constants were determined by the spectrophotometric method: in a first step, buffer solutions of different pH were prepared. The pH of solutions was determined by a Mettler Toledo F20 FiveEasy pH meter equipped with a pH electrode LE438 3 in 1 (Mettler Toledo). […] The spectra were recorded with 1 nm resolution over the range from 220 to 550 nm to obtain different spectra around the maximum λ for each compound studied. The purity of all samples was monitored by an HPLC method. […]

[4] = n-octanol/phosphate buffer pH 7.4, pH 7.4, 25 °C
[5] = n-octanol/phosphate buffer pH 7.4, pH 7.4, 37 °C

Compound | logP at 5 h [1, 4] | logP at 5 h [1, 5] | effect on HeLa cell viability (HeLa cells; HeLa, concentration range 2.5 μM to 80 μM, 24 h) | fraction existing in ionic form [2] | pKa [2] | IC50 (NIH/3T3 cells) [µM] | IC50 (HeLa cells; HeLa, 24 h) [µM] | reduction of HeLa cell viability (HeLa cells; HeLa, 24 h) | IC50 (HeLa cells; Homo sapiens, HeLa, 24 h) [µM] | pKa* (singlet excited state) [3] | selectivity index (SI) (HeLa cells)
CC(=O)OC[C@H]1O[C@@H](n2cnc3c(=S)n4cc(C)[nH]c4nc32)[C@H](OC(C)=O)[C@@H]1OC(C)=O [6-Me-TEG, 2′,3′,5′-tri-O-acetyl-6-methyl-9-thio-1,N^2-ethenoguanosine] | 0.8 | 0.75 | no effect on HeLa cell viability was observed | – | – | – | – | – | – | – | –
Cc1cn2c(=S)c3nc[nH]c3nc2[nH]1 [6-Me-TEGua, 6-methyl-9-thio-1,N^2-ethenoguanine] | 0.75 | 0.7 | – | about 4% | 8.8 | 51.6 | < 100 | up to 57% | 78.2 | – | –
OC[C@H]1O[C@@H](n2cnc3c(=S)n4cc[nH]c4nc32)[C@H](O)[C@@H]1O [TEGuo, 9-thio-1,N^2-ethenoguanosine] | -0.89 | -0.96 | – | about 6% | 8.6 | 83.6 | < 100 | – | 80.2 | 8.7 | > 1
S=c1c2nc[nH]c2nc2[nH]ccn12 [TEGua, 9-thio-1,N^2-ethenoguanine] | 0.58 | 0.52 | – | about 6% | 8.6 | 97.9 | – | – | 137 | – | –
Nc1nc2nc[nH]c2c(=S)[nH]1 [6TG, 6-thioguanine, reference compound] | – | – | – | – | – | – | – | – | – | – | > 1
Cc1cn2c(=S)c3ncn([C@@H]4O[C@H](CO)[C@@H](O)[C@H]4O)c3nc2[nH]1 [6-Me-TEGuo, 6-methyl-9-thio-1,N^2-ethenoguanosine] | -0.61 | -0.67 | – | about 4% | 8.8 | 63.8 | < 100 | up to 42% | 55.8 | 8.9 | > 1
